{"source": "patent US20060009425A1", "about": "“Oral formulations of paricalcitol” (priority 2004, published 2006)", "format_in_all_cases": "in vivo, human", "key": {"[1]": {"test_system": "serum parathyroid hormone (PTH) levels", "experiment": "Phase 3 placebo-controlled TIW study, iPTH reduction (Example 7)", "source_text": "Methodology: This was a Phase 3, prospective, randomized, placebo-controlled, double-blind, 24-week Treatment Phase, multi-center study in CKD (Stages 3 and 4) subjects with elevated PTH levels (≧150 pg/mL). Subjects were randomized in an equal ratio (1:1) to 1 of 2 treatment groups: paricalcitol capsule (Group 1) and placebo (Group 2). Potential subjects underwent procedures to determine their baseline intact PTH (iPTH), calcium, and phosphorus levels for eligibility to receive treatment.\nDuring the Treatment Phase, subjects were to self-administer study drug 3 times weekly, on Monday, Wednesday and Friday, for a total of 24 weeks. The initial dose was 2 or 4 mcg (depending on baseline iPTH levels). Procedures to be performed during the Treatment Phase included vital signs, chemistry and hematology, urinary pyridinoline, urinary deoxypyridinoline, serum bone-specific alkaline phosphatase, serum osteocalcin, urinalysis, spot urine for calcium/creatinine ratio, and recording of adverse events and concurrent medications. Serum iPTH, calcium, phosphorus, and albumin were measured every 2 weeks. Dose adjustments were to be made according to these chemistry results for iPTH, calcium, and phosphorus. Doses may have been increased in 2 mcg increments every 4 weeks.\nEfficacy: The primary efficacy endpoint was the achievement of 2 consecutive ≧30% decreases from baseline iPTH levels. The secondary efficacy analyses include change and percent change from baseline analyses in iPTH and change from baseline analyses in biochemical bone markers.\n(§1) The Intent-To-Treat population (Full Analysis Set) was defined as all randomized subjects with a baseline iPTH and at least 2 on-treatment iPTH measurements. This population was used in the primary efficacy analysis."}, "iPTH": {"test_system": "iPTH", "experiment": "Combined Phase 3 studies, iPTH reduction (Examples 11, 12)", "settings": "for iPTH, Mean Change from Baseline (SE) / iPTH, Mean Percent Change from Baseline (SE): last on-treatment", "description": "In this example, three double-blind, placebo-controlled, multicenter studies were conducted to evaluate the safety and efficacy of paricalcitol capsule in CKD stage 3-4 subjects. Major inclusion included eGFR (MDRD formula) 15-60 mL/min/1.73 m^2, iPTH ≧150 pg/mL. A total of 220 subjects across the 3 studies were randomized and received paricalcitol capsule or placebo three times weekly (TIW, N=145) or daily (QD, N=75) for 24 weeks. […] The initial dose was 2 mcg (TIW) or 1 mcg (QD) for baseline iPTH ≦500 pg/mL and 4 mcg (TIW) or 2 mcg (QD) for baseline iPTH >500 pg/mL. Doses were titrated based on serum Ca, P and iPTH results that were measured every 2 weeks, dose increases occurred every 4 weeks.\nIn this example, paricalcitol capsules were evaluated in 3 double-blind, placebo-controlled multicenter studies in CKD stage 3-4 subjects with 2° HPT; 2 of these studies were conducted with TIW dosing and 1 was done with QD dosing. Subjects with eGFR (MDRD formula) 15-60 ml/min/1.73 m^2, iPTH ≧150 pg/mL, serum Ca 8.0-10.0 mg/dL and PO4≦5.2 mg/dL were randomized 1:1 and treated with paricalcitol capsule or placebo for 24 weeks. A total of 145 subjects used TIW regimen (paricalcitol: 72; placebo: 73) and 75 subjects (paricalcitol: 35; placebo: 40) used QD regimen. After the initial doses, doses were titrated based on serum Ca, P and iPTH results that were measured every 2 weeks; dose increases occurred once every 4 weeks and decreases every 2 weeks. Dosing administrations are shown below in Table 18."}, "[2]": {"test_system": "serum parathyroid hormone (PTH) levels", "experiment": "Phase 3 placebo-controlled TIW study, iPTH reduction (Example 6)", "source_text": "Methodology: This was a Phase 3, prospective, randomized, placebo-controlled, double-blind, 24-week Treatment Phase, multi-center study in CKD (Stages 3 and 4) subjects with elevated PTH levels (≧150 pg/mL). Subjects were randomized in an equal ratio (1:1) to 1 of 2 treatment groups: Paricalcitol Capsule (Group 1) and placebo (Group 2). Potential subjects underwent procedures to determine their baseline intact PTH (iPTH), calcium, and phosphorus levels for eligibility to receive treatment.\nThe study was performed in 4 parts: a Screening Visit, a Pre-Treatment Phase, a Treatment Phase, and a Follow-Up Phase. At the Screening Visit, subjects reviewed and signed the informed consent form prior to the conduct of any study-specific screening procedures. A spot urine sample was used to calculate calcium/creatinine ratio. A blood sample was drawn for iPTH, blood urea nitrogen (BUN), albumin and serum creatinine levels. […] The serum creatinine, BUN, and albumin values were used to calculate the subject's estimated glomerular filtration rate (eGFR) using a formula derived from the “Modification of Diet in Renal Disease” (MDRD) study. Subjects with a calculated eGFR of 15 to 60 mL/min were eligible to undergo Pre-Treatment Phase procedures. The Pre-Treatment Phase was 1 to 4 weeks. During this phase, subjects had 2 scheduled office visits. The office visits could have occurred at any time over a 4-week period but must have been at least 1 day apart. During these visits, subjects were to meet laboratory criteria regarding serum iPTH, calcium, and phosphorus levels. If the subject was unable to meet these criteria, he or she may have been re-screened once after 4 weeks. […] Subjects who satisfied inclusion and exclusion criteria after a minimum of 1 week in the Pre-Treatment Phase were eligible to enter the Treatment Phase. During the Treatment Phase, subjects were to self-administer study drug 3 times weekly, on Monday, Wednesday and Friday, for a total of 24 weeks. The initial dose was 2 or 4 mcg (depending on baseline iPTH levels). Procedures to be performed during the Treatment Phase included vital signs, chemistry and hematology, urinary pyridinoline, urinary deoxypyridinoline, serum bone-specific alkaline phosphatase, serum osteocalcin, urinalysis, spot urine for calcium/creatinine ratio, and recording of adverse events and concurrent medications. Serum iPTH, calcium, phosphorus, and albumin were measured every 2 weeks. Dose adjustments were to be made according to these chemistry results for iPTH, calcium, and phosphorus. Doses may have been increased in 2 mcg increments every 4 weeks. Dose reductions were to occur according to a protocol-specified algorithm. However, dosing could have been adjusted any time if, in the judgment of the Investigator, a risk to subject safety existed.\nEfficacy: The primary efficacy endpoint was the achievement of 2 consecutive >30% decreases from baseline iPTH levels.\nThe secondary efficacy analyses include change and percent change from baseline analyses in iPTH and change from baseline analyses in biochemical bone activity markers.\nas §1"}}, "data": [{"compound": "C[C@H](/C=C/[C@H](C)C(C)(C)O)[C@H]1CC[C@H]2/C(=C/C=C3C[C@@H](O)C[C@H](O)C3)CCC[C@]12C", "note": "[Paricalcitol, 19-nor-1α,3β,25-trihydroxy-9,10-secoergosta-5(Z); 7(E),22(E)-triene]", "values": [{"measurement": "subjects with 4 consecutive ≧30% decreases from baseline in iPTH", "setting": "[1]; 26/32, exploratory analysis", "value": 81, "unit": "%"}, {"measurement": "subjects with 2 consecutive ≧30% decreases from baseline in iPTH", "setting": "[1]; 29/32, TIW, 24 weeks, CKD Stages 3 and 4", "value": 91, "unit": "%"}, {"measurement": "30% mean reduction in iPTH occurred by", "setting": "[1]; TIW", "value": "≤ 9", "unit": "Week"}, {"measurement": "mean change from baseline in iPTH at the Final Visit", "setting": "[1]; TIW, 24 weeks", "value": -80.7, "unit": "pg/mL"}, {"measurement": "mean change from baseline in iPTH at the Last On-Treatment Visit", "setting": "[1]; TIW, 24 weeks", "value": -83.1, "unit": "pg/mL"}, {"measurement": "percent decrease in iPTH at the Final Visit", "setting": "[1]; TIW, 24 weeks", "value": 30.3, "unit": "%"}, {"measurement": "percent decrease in iPTH at the Last On-Treatment Visit", "setting": "[1]; TIW, 24 weeks", "value": 33.4, "unit": "%"}, {"measurement": "maximum decrease from baseline in iPTH", "setting": "[1]; observed at Week 17", "value": "−48.2", "unit": "%"}, {"measurement": "30% mean iPTH reduction by", "setting": "iPTH; 3 Phase 3 studies combined", "value": "≤ 9", "unit": "Week"}, {"measurement": "efficacy in PTH suppression", "setting": "iPTH; 24-week pivotal Phase 3 studies, CKD Stage 3 and 4 with 2° HPT", "value": "> 90", "unit": "%"}, {"measurement": "subjects with 2 consecutive 30% decreases in iPTH", "setting": "iPTH; 92/101, 3 Phase 3 studies combined", "value": 91, "unit": "%"}, {"measurement": "2 consecutive 30% iPTH reduction from baseline, subjects n (%)", "setting": "iPTH; N = 101, 3 Phase 3 studies combined", "value": "92 (91%)"}, {"measurement": "iPTH, Mean Last On-Treatment Value", "setting": "iPTH; QD Regimen, N = 35", "value": 128, "unit": "pg/mL"}, {"measurement": "iPTH, Mean Change from Baseline (SE)", "setting": "iPTH; QD Regimen", "value": "−131 (16.7) pg/mL"}, {"measurement": "iPTH, Mean Percent Change from Baseline (SE)", "setting": "iPTH; QD Regimen", "value": "−50% (5.0)"}, {"measurement": "2 consecutive 30% iPTH reduction from baseline", "setting": "iPTH; QD regimen", "value": 91, "unit": "%"}, {"measurement": "30% mean iPTH reduction by", "setting": "iPTH; QD regimen", "value": "≤ 7", "unit": "Week"}, {"measurement": "2 consecutive 30% iPTH reduction from baseline", "setting": "iPTH; QD regimen, listed as paricalcitol", "value": 91, "unit": "%"}, {"measurement": "iPTH, Mean Last On-Treatment Value", "setting": "iPTH; TIW Regimen, N = 69", "value": 179, "unit": "pg/mL"}, {"measurement": "iPTH, Mean Change from Baseline (SE)", "setting": "iPTH; TIW Regimen", "value": "−90 (10.7) pg/mL"}, {"measurement": "iPTH, Mean Percent Change from Baseline (SE)", "setting": "iPTH; TIW Regimen", "value": "−33% (3.6)"}, {"measurement": "2 consecutive 30% iPTH reduction from baseline", "setting": "iPTH; TIW regimen", "value": 91, "unit": "%"}, {"measurement": "30% mean iPTH reduction by", "setting": "iPTH; TIW regimen", "value": "≤ 9", "unit": "Week"}, {"measurement": "2 consecutive 30% iPTH reduction from baseline", "setting": "iPTH; TIW regimen, listed as paricalcitol", "value": 91, "unit": "%"}, {"measurement": "subjects with 4 consecutive ≧30% decreases from baseline in iPTH", "setting": "[2]; 26/36, exploratory analysis", "value": 72, "unit": "%"}, {"measurement": "subjects with 2 consecutive >30% decreases from baseline in iPTH", "setting": "[2]; 33/36, TIW, 24 weeks, CKD Stages 3 and 4", "value": 92, "unit": "%"}, {"measurement": "30% mean reduction in iPTH occurred by", "setting": "[2]; TIW", "value": "≤ 9", "unit": "Week"}, {"measurement": "mean change from baseline in iPTH at the Final Visit", "setting": "[2]; TIW, 24 weeks", "value": -58.1, "unit": "pg/mL"}, {"measurement": "mean change from baseline in iPTH at the Last On-Treatment Visit", "setting": "[2]; TIW, 24 weeks", "value": -95.7, "unit": "pg/mL"}, {"measurement": "percent decrease in iPTH at the Final Visit", "setting": "[2]; TIW, 24 weeks", "value": 19.2, "unit": "%"}, {"measurement": "percent decrease in iPTH at the Last On-Treatment Visit", "setting": "[2]; TIW, 24 weeks", "value": 33.0, "unit": "%"}, {"measurement": "maximum decrease from baseline in iPTH", "setting": "[2]; observed at Week 19", "value": "−46.0", "unit": "%"}]}]}
